ChEMBL document CHEMBL4806965, “Nek6 kinase inhibitors useful for the treatment of solid tumors” (2019)

What was measured:
[1] = system: PEO1; experiment: Synergistic cytotoxicity against human PEO1 cells assessed as combination index at 44 uM after 72 hrs in presence of 10 uM of cisplatin by ATPlite assay; format: functional
[2] = system: PEO1; experiment: Synergistic cytotoxicity against human PEO1 cells assessed as combination index at 44 uM after 72 hrs in presence of 0.1 uM of cisplatin by ATPlite assay; format: functional
[3] = system: PEO1; experiment: Synergistic cytotoxicity against human PEO1 cells assessed as combination index at 44 uM after 72 hrs in presence of 10 uM of paclitaxel by ATPlite assay; format: functional
[4] = system: PEO1; experiment: Synergistic cytotoxicity against human PEO1 cells assessed as combination index at 44 uM after 72 hrs in presence of 5 uM of cisplatin by ATPlite assay; format: functional
[5] = system: PEO1; experiment: Synergistic cytotoxicity against human PEO1 cells assessed as combination index at 44 uM after 72 hrs in presence of 1 uM of paclitaxel by ATPlite assay; format: functional
[6] = system: PEO1; experiment: Synergistic cytotoxicity against human PEO1 cells assessed as combination index at 44 uM after 72 hrs in presence of 1 uM of cisplatin by ATPlite assay; format: functional
[7] = system: PEO1; experiment: Synergistic cytotoxicity against human PEO1 cells assessed as combination index at 44 uM after 72 hrs in presence of 10000 uM of paclitaxel by ATPlite assay; format: functional
[8] = system: PEO1; experiment: Synergistic cytotoxicity against human PEO1 cells assessed as combination index at 44 uM after 72 hrs in presence of 2 uM of cisplatin by ATPlite assay; format: functional
[9] = system: PEO1; experiment: Synergistic cytotoxicity against human PEO1 cells assessed as combination index at 44 uM after 72 hrs in presence of 100 uM of paclitaxel by ATPlite assay; format: functional
[10] = system: PEO1; experiment: Cytotoxicity against human PEO1 cells assessed as inhibition of cell growth after 72 hrs by ATPlite assay; format: functional, cell-based; conditions: PEO1, 72 h
[11] = system: PEO1; experiment: Synergistic cytotoxicity against human PEO1 cells assessed as combination index at 44 uM after 72 hrs in presence of 1000 uM of paclitaxel by ATPlite assay; format: functional

Molecule `CC1=C(C#N)C(O)=NC(=O)/C1=C\c1ccc(-c2ccccc2)o1` has a CI [1] of 0.69, a CI [2] of 0.81 and a CI [3] of 1.05. The CI [4] was 1.03, the CI [5] was 0.87 and the CI [6] was 1.08. The CI [7] was 287.79, the CI [8] was 1.01 and the CI [9] was 4.68. It also gave an IC50 [10] of 44 µM and a CI [11] of 29.58.

For `CC(=O)O[C@H]1C(=O)[C@@]2(C)[C@H]([C@H](OC(=O)c3ccccc3)[C@]3(O)C[C@H](OC(=O)[C@H](O)[C@@H](NC(=O)c4ccccc4)c4ccccc4)C(C)=C1C3(C)C)[C@]1(OC(C)=O)CO[C@@H]1C[C@@H]2O` [PACLITAXEL], the IC50 [10] was 7 µM.
